For data set [1], the target named is mitochondrial RNA-polymerase (POLRMT) (Mus musculus, UniProt Q8BKF1). The experiment in a line: Homogeneous TR-FRET assay for mitochondrial transcription activity. It is filed as biochemical. The conditions noted are these: homogeneous TR-FRET assay according to Example 4; activity class. The gist of the method:
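TR-FRET read-out (340 nm excitation, 665 nm emission) of a 407 bp transcript captured by Eu-streptavidin/biotin donor and ATTO647N acceptor DNA probes after EDTA stop. Transcription ran 2 h at RT with 500 μM […], mouse POLRMT/TFAM/TFB2M and LSP-plasmid template, after 10 min compound preincubation (10 μM or dilution series).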
In general terms: Time-resolved FRET reads energy transfer from a long-lived donor to a nearby acceptor.

For data set [2], the system named is mitochondrial transcription (7S RNA) in HeLa cells. As to the kind of experiment: Quantitative real time-PCR assay of inhibition of mitochondrial transcription (cellular qPCR assay IMT). It is filed as cell-based. Conditions: Homo sapiens, 4 h compound incubation, qRT-PCR according to Example 5, activity class. The method in brief:
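HeLa cells were exposed 4 h to compound dilution series or DMSO. Mitochondrial 7S RNA, with POLRMT for nuclear transcription, was measured by TaqMan qRT-PCR, normalised to TBP. Biological triplicates were analysed by ΔΔCt and expressed as Rq % (2^-ΔΔCt).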
A general note: In qPCR the cycle at which signal appears reflects the starting amount.

In the next data set the test system is CA-46 (lymphoma). The experiment in a line: CellTiter GLO viability assay, CA-46. The format is cell-based. The conditions noted are these: Homo sapiens, CA46, 144 h, read-out: IC50 (μM) incubation time 144 h. How it is done: (§1) The CellTiter-Glo Luminescent Cell Viability Assay (Promega) is a homogeneous method of determining the number of viable cells in culture. It is based on quantification of ATP, indicating the presence of metabolically active cells.
(§2) […] After incubation for 3 h in humidified chambers at 37° C./5% CO2 compounds/DMSO were added at different concentrations. […] Cells treated with the compound vehicle DMSO were used as positive controls and cells treated with 10 μM Staurosporine served as negative controls. […] Thereon, mixture and assay plates were equilibrated at room temperature for 20 min. Equal volumes of the reagent-medium-mixture was added to the volume of culture medium present in each well.
(§3) The plates were mixed at ˜200 rpm for 2 minutes on an orbital shaker. The microplates were then incubated at room temperature for 10 minutes for stabilization of the luminescent signal. Following incubation the luminescence is recorded on a Victor microplate reader (Perkin Elmer) using 200 ms integration time. The data were then analyzed with Excel using the XLFIT Plugin (dose response Fit 205) for IC50-determination. As quality control the Z′-factor was calculated from 16 positive and negative control values. Only assay results showing a Z′-factor≥0.5 were used for further analysis.
For orientation: ATP-based viability assays read luminescence as a measure of living cells.

The subject of another data set is HEC-59 (endometrial). As to the kind of experiment: CellTiter GLO viability assay, HEC-59. It is filed as cell-based. The conditions noted are these: 144 h, read-out: IC50 (μM) incubation time 144 h. The method, then:
as §1
(§4) Cells were seeded on day 1 at cell numbers that assure assay linearity and optimal signal intensity. After incubation for 3 h in humidified chambers at 37° C./5% CO2 compounds/DMSO were added at different concentrations. […] Cells treated with the compound vehicle DMSO were used as positive controls and cells treated with 10 μM Staurosporine served as negative controls. […] Thereon, mixture and assay plates were equilibrated at room temperature for 20 min. Equal volumes of the reagent-medium-mixture was added to the volume of culture medium present in each well.
as §3

Another data set deals with HRT-18 (colon). As to the kind of experiment: CellTiter GLO viability assay, HRT-18. The conditions noted are these: Homo sapiens, 144 h, read-out: IC50 (μM) incubation time 144 h. The format is cell-based. How it is done: as §1, §4, §3
The test system of the next data set is NCI-H1299 (lung). The experiment in a line: CellTiter GLO viability assay, NCI-H1299. The format is cell-based. The conditions noted are these: Homo sapiens, 144 h, read-out: IC50 (μM) incubation time 144 h. The method, then: as §1, §4, §3
The test system of the next data set is NCI-H23 (lung). As to the kind of experiment: CellTiter GLO viability assay, NCI-H23. It is filed as cell-based. Conditions: for IC50: Homo sapiens, NCI-H23 (lung), 144 h, read-out: IC50 (μM) incubation time 144 h; for sensitivity of the cell line (in words): NCl-H23. How it is done:
as §1, §4, §3

In another data set the test system is NCI-H596 (lung). The experiment in a line: CellTiter GLO viability assay, NCI-H596. The format is cell-based. Conditions: Homo sapiens, 144 h, read-out: IC50 (μM) incubation time 144 h. How it is done: as §1, §4, §3
For another data set, the system named is SW403 (colon). The experiment in a line: CellTiter GLO viability assay, SW403. It is filed as cell-based. The conditions noted are these: Homo sapiens, SW-403, 144 h, read-out: IC50 (μM) incubation time 144 h. How it is done: as §1, §2, §3
In another data set the test system is SW48 (colon). The experiment in a line: CellTiter GLO viability assay, SW48. It is filed as cell-based. Conditions: Homo sapiens, 144 h, read-out: IC50 (μM) incubation time 144 h. How it is done:
as §1, §4, §3

For a further data set, the system named is SW948 (colon). As to the kind of experiment: CellTiter GLO viability assay, SW948. The format is cell-based. The conditions noted are these: Homo sapiens, 144 h, read-out: IC50 (μM) incubation time 144 h. How it is done: as §1, §4, §3
Data set [3] has as its system human DLD-1 colon carcinoma xenograft. As to the kind of experiment: Therapeutic effect on human DLD-1 colon carcinoma xenograft in nude mice. The conditions noted are these: 30 mg/kg p.o. QD × 28 days, positive control.
Procedure: DLD-1 colon carcinoma cells (5×10^6 cells in 100 μL of PBS/Matrigel), isolated during exponential growth phase from in vitro cell culture, were transplanted s.c. into each female BALB/c nude mouse at day 0. Mice were kept under strictly controlled and standardized barrier conditions in IVC.
Sorafenib) (Nexavar®, which is an approved multi-kinase inhibitor/cytostatic from Bayer A G, was used as a positive control. Body weight and tumor volume (TV) were monitored two to three times per week.
Mice of groups 3, 4 and 5 were treated again at the end of the study period and blood samples were taken to generate plasma 1 h prior and 1 h post treatment. In addition, tumor and tissue samples were isolated, divided into two parts and snap frozen in liquid nitrogen. Mice of groups 1-5 were sacrificed at day 39. Gross autopsy was performed from all mice.

Sequence of mitochondrial RNA-polymerase (POLRMT) (Q8BKF1 42-1207): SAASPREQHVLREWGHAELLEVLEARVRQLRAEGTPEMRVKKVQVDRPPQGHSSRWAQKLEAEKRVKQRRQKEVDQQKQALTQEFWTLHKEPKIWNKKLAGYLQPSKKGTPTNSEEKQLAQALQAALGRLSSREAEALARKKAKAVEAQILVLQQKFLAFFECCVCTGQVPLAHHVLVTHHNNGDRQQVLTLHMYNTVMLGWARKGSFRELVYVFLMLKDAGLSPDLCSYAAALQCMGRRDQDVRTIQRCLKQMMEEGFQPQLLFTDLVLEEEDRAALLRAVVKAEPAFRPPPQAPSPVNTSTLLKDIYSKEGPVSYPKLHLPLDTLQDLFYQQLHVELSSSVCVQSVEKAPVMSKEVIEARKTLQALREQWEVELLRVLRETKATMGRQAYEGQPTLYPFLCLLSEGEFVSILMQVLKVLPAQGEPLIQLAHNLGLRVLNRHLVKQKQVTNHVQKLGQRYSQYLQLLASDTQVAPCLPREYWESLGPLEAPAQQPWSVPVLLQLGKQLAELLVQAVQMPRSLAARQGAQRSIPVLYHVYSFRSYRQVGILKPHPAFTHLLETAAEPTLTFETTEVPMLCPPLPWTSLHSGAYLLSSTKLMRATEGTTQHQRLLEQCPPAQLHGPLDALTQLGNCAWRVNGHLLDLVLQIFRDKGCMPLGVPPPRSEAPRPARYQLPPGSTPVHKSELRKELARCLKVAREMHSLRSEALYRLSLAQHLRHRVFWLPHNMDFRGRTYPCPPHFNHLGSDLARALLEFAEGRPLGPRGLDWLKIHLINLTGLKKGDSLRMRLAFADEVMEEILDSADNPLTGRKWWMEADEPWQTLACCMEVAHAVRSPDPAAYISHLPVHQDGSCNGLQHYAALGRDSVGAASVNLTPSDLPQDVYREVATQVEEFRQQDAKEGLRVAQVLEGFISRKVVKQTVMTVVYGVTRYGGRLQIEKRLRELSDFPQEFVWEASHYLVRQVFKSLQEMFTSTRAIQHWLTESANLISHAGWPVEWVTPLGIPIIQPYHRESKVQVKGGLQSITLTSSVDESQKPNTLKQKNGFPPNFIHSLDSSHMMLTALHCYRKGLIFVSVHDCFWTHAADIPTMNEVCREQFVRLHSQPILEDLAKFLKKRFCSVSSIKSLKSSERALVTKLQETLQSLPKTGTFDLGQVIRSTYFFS

Broadly, the IC50 is the point on the concentration scale where inhibition reaches its midpoint. On to `Cc1ccccc1-c1cc(=O)oc2cc(OC(C)C(=O)N(C)C)ccc12` (stereo not drawn) [Compound 38, N,N-dimethyl-2-[4-(o-tolyl)-2-oxo-chromen-7-yl]oxy-propanamide], for which the IC50 was < 20 nM in data set [1]; < 10 nM in [2]; 0.1 to 1 µM in the data set with CA-46 (lymphoma); > 10 µM in the data set with HEC-59 (endometrial); ≤ 0.1 µM in the data set with HRT-18 (colon); 0.1 to 1 µM in the data set with NCI-H1299 (lung). Moreover, the IC50 was 1 to 10 µM in the data set on NCI-H23 (lung); 1 to 10 µM in the data set with NCI-H596 (lung); 0.1 to 1 µM in the data set on SW403 (colon); 1 to 10 µM in the data set with SW48 (colon); 0.1 to 1 µM in the data set on SW948 (colon). Also, the “sensitivity of the cell line (in words)” value with NCI-H23 (lung) is on record as “moderate sensitivity”.
Take `CC(Oc1ccc2c(-c3ccc(F)cc3Cl)cc(=O)oc2c1)C(=O)N1CCC[C@H](C(=O)O)C1` (stereo partly drawn) [Compound 47, (3S)-1-(2-((4-(2-chloro-4-fluorophenyl)-2-oxo-2H-chromen-7-yl)oxy)propanoyl)piperidine-3-carboxylic acid]: the half-maximal inhibitory concentration (IC50) in [1] is < 20 nM; in [2], < 10 nM; with CA-46 (lymphoma), 0.1 to 1 µM; in the data set with HEC-59 (endometrial), > 10 µM; in the data set with HRT-18 (colon), ≤ 0.1 µM; in the data set on NCI-H1299 (lung), 0.1 to 1 µM. Besides, the half-inhibitory concentration (IC50) in the data set on NCI-H23 (lung) is > 10 µM; with NCI-H596 (lung), 1 to 10 µM; in the data set with SW403 (colon), 0.1 to 1 µM; with SW48 (colon), 0.1 to 1 µM; in the data set on SW948 (colon) it was 0.1 to 1 µM. The “sensitivity of the cell line (in words)” value with NCI-H23 (lung) was “resistant”.
Take `Cc1ccsc1-c1cc(=O)oc2cc(O[C@H](C)C(=O)N3CCCCC3)ccc12` [Compound 177, 7-[(1R)-1-methyl-2-oxo-2-(1-piperidyl)ethoxy]-4-(3-methyl-2-thienyl)chromen-2-one]: the IC50 in data set [1] was 20 to 100 nM; in data set [2], < 10 nM.
The like results for `Cc1ccsc1-c1cc(=O)oc2cc(O[C@H](C)C(=O)NC(C)C)ccc12` [Compound 178, (2R)-N-isopropyl-2-[4-(3-methyl-2-thienyl)-2-oxo-chromen-7-yl]oxy-propanamide] were, in that order, 100 to 1000 nM and 10 to 50 nM.
On to `Cc1ccsc1-c1cc(=O)oc2cc(O[C@H](C)C(=O)N(C)C)ccc12` [Compound 179, (2R)-N,N-dimethyl-2-[4-(3-methyl-2-thienyl)-2-oxo-chromen-7-yl]oxy-propanamide], for which the IC50 in [1] was in the range of 100 to 1000 nM; in data set [2] it was 10 to 50 nM.
The matching figures for `CCOC(=O)C[C@H]1CCCN(C(=O)[C@@H](C)Oc2ccc3c(-c4sccc4C)cc(=O)oc3c2)C1` [Compound 180, ethyl 2-[(3R)-1-[(2R)-2-[4-(3-methyl-2-thienyl)-2-oxo-chromen-7-yl]oxypropanoyl]-3-piperidyl]acetate]: 20 to 100 nM and < 10 nM.
The like results for `Cc1ccsc1-c1cc(=O)oc2cc(O[C@H](C)C(=O)N3CCC[C@H](CC(=O)O)C3)ccc12` [Compound 181, 2-[(3R)-1-[(2R)-2-[4-(3-methyl-2-thienyl)-2-oxo-chromen-7-yl]oxypropanoyl]-3-piperidyl]acetic acid] were, in that order, 20 to 100 nM and 10 to 50 nM.
Regarding `Cc1cscc1-c1cc(=O)oc2cc(O[C@H](C)C(=O)N3CCC[C@H](C(=O)O)C3)ccc12` [Compound 182, (3S)-1-[(2R)-2-[4-(4-methyl-3-thienyl)-2-oxo-chromen-7-yl]oxypropanoyl]piperidine-3-carboxylic acid], the values for the IC50 in [1] and in data set [2] were < 20 nM and < 10 nM, respectively.
Take `Cc1cscc1-c1cc(=O)oc2cc(O[C@H](C)C(=O)N3CCCCC3)ccc12` [Compound 183, 7-[(1R)-1-methyl-2-oxo-2-(1-piperidyl)ethoxy]-4-(4-methyl-3-thienyl)chromen-2-one]: the values for the IC50 in [1] and in data set [2] were < 20 nM and < 10 nM, respectively.
On to `CNC(=O)c1cc(Oc2ccc(NC(=O)Nc3ccc(Cl)c(C(F)(F)F)c3)cc2)ccn1` [Sorafenib, reference compound], for which the body weight loss entry in [3] is “severe body weight loss”.

For the origin of these results see patent publication US11111238B2, “Coumarin derivatives, processes for their preparation and uses thereof for the treatment of cancer” (Lead Discovery Center GmbH, priority 2017, dated 2021).
